According to patent US11241440B2, “Dihydrooxadiazine compounds for treating infections and cancer” (VALORALIA I MÁS D, SL, priority 2016, dated 2022):

Key:
[1] = test system: T. pulmonis; assay: Kirby-Bauer disk diffusion susceptibility test; format: cell-based, Tsukamurella pulmonis
[2] = test system: S. aureus; assay: Kirby-Bauer disk diffusion susceptibility test; format: cell-based, Staphylococcus aureus; further: key: I = intermediate activity; S = susceptibility; R = Resistance
[3] = test system: S. epidermidis; assay: Kirby-Bauer disk diffusion susceptibility test; format: cell-based, Staphylococcus epidermidis; further: key: I = intermediate activity; S = susceptibility; R = Resistance
[4] = test system: N. cyriacigeorgica; assay: Kirby-Bauer disk diffusion susceptibility test; format: cell-based
[5] = test system: N. carnea; assay: Kirby-Bauer disk diffusion susceptibility test; format: cell-based, Nocardia carnea
[6] = test system: A. baumannii; assay: Kirby-Bauer disk diffusion susceptibility test; format: cell-based, Acinetobacter baumannii; further: key: I = intermediate activity; S = susceptibility; R = Resistance
[7] = test system: B. cereus; assay: Kirby-Bauer disk diffusion susceptibility test; format: cell-based, Bacillus cereus; further: key: I = intermediate activity; S = susceptibility; R = Resistance
[8] = test system: M. abscessus; assay: Kirby-Bauer disk diffusion susceptibility test; further: key: I = intermediate activity; S = susceptibility; R = Resistance; format: cell-based, Mycobacterium abscessus; conditions: M. abscessus strain 690, isolation year 2012
[9] = test system: M. fortuitum; assay: Kirby-Bauer disk diffusion susceptibility test; further: key: I = intermediate activity; S = susceptibility; R = Resistance; format: cell-based; conditions: M. fortuitum strain 1080, isolation year 2011
[10] = test system: M. chelonae; assay: Kirby-Bauer disk diffusion susceptibility test; format: cell-based; conditions: M. chelonae strain 870, isolation year 2011
[11] = test system: A. flavus; conditions: A. flavus AF-001; cited from earlier work; further: key: I = intermediate activity; S = susceptibility; R = Resistance
[12] = test system: C. parapsilosis; conditions: C. parapsilosis CP-007; cited from earlier work; further: key: I = intermediate activity; S = susceptibility; R = Resistance
[13] = test system: A. fumigatus; conditions: A. fumigatus AFu-001; cited from earlier work; further: key: I = intermediate activity; S = susceptibility; R = Resistance
[14] = test system: A. terreus; conditions: A. terreus ATe-001; cited from earlier work; further: key: I = intermediate activity; S = susceptibility; R = Resistance
[15] = test system: equine herpes virus type 1 (EHV-1); assay: Viral titer reduction; format: cell-based; conditions: 10 μg/ml
[16] = T. pulmonis strain 40, isolation year 2015
[17] = T. pulmonis strain 1991, isolation year 2009
[18] = S. aureus strain 282, isolation year 2005
[19] = S. aureus strain 890, isolation year 2010
[20] = S. epidermidis strain 188, isolation year 2009
[21] = S. epidermidis strain 982, isolation year 2006
[22] = N. cyriacigeorgica strain 30, isolation year 2005
[23] = N. cyriacigeorgica strain 199, isolation year 2005
[24] = N. carnea strain 40, isolation year 2011
[25] = N. carnea strain 769, isolation year 2009
[26] = A. baumannii strain 300, isolation year 2001
[27] = A. baumannii strain 1301, isolation year 2009
[28] = B. cereus strain 25, isolation year 2014
[29] = B. cereus strain 182, isolation year 2013

## NCC[C@H](O)C(=O)N[C@@H]1C[C@H](N)[C@@H](O[C@H]2O[C@H](CN)[C@@H](O)[C@H](O)[C@H]2O)[C@H](O)[C@H]1O[C@H]1O[C@H](CO)[C@@H](O)[C@H](N)[C@H]1O [AMK, Amikacin]
[1]; [16]
  Characteristics of strains: susceptibility or resistance: R
[1]; [17]
  Characteristics of strains: susceptibility or resistance: S
[2]; [18]
  Characteristics of strains: susceptibility or resistance: S
[2]; [19]
  Characteristics of strains: susceptibility or resistance: S
[3]; [20]
  Characteristics of strains: susceptibility or resistance: S
[3]; [21]
  Characteristics of strains: susceptibility or resistance: S
[4]; [22]
  Characteristics of strains: susceptibility or resistance: S
[4]; [23]
  Characteristics of strains: susceptibility or resistance: R
[5]; [24]
  Characteristics of strains: susceptibility or resistance: R
[5]; [25]
  Characteristics of strains: susceptibility or resistance: S
[6]; [26]
  Characteristics of strains: susceptibility or resistance: R
[6]; [27]
  Characteristics of strains: susceptibility or resistance: S

## CCC[C@@H]1C[C@@H](C(=O)N[C@@H]([C@H]2O[C@H](SC)[C@H](O)[C@@H](O)[C@H]2O)[C@H](C)Cl)N(C)C1 [CLI, Clindamycin]
[2]; [18]
  Characteristics of strains: susceptibility or resistance: R
[2]; [19]
  Characteristics of strains: susceptibility or resistance: R
[7]; [28]
  Characteristics of strains: susceptibility or resistance: R
[7]; [29]
  Characteristics of strains: susceptibility or resistance: R
[3]; [20]
  Characteristics of strains: susceptibility or resistance: S
[3]; [21]
  Characteristics of strains: susceptibility or resistance: R

## Gentamicin
[2]; [18]
  Characteristics of strains: susceptibility or resistance: R
[2]; [19]
  Characteristics of strains: susceptibility or resistance: R
[3]; [20]
  Characteristics of strains: susceptibility or resistance: S
[3]; [21]
  Characteristics of strains: susceptibility or resistance: R

## CC[C@H]1OC(=O)[C@H](C)[C@@H](O[C@H]2C[C@@](C)(OC)[C@@H](O)[C@H](C)O2)[C@H](C)[C@@H](O[C@@H]2O[C@H](C)C[C@H](N(C)C)[C@H]2O)[C@](C)(O)C[C@@H](C)C(=O)[C@H](C)[C@@H](O)[C@]1(C)O [ERI, Erythromycin]
[8]
  Characteristics of strains: susceptibility or resistance: S
[1]; [16]
  Characteristics of strains: susceptibility or resistance: R
[1]; [17]
  Characteristics of strains: susceptibility or resistance: S
[2]; [18]
  Characteristics of strains: susceptibility or resistance: R
[2]; [19]
  Characteristics of strains: susceptibility or resistance: R
[9]
  Characteristics of strains: susceptibility or resistance: R
[7]; [28]
  Characteristics of strains: susceptibility or resistance: R
[7]; [29]
  Characteristics of strains: susceptibility or resistance: R
[3]; [20]
  Characteristics of strains: susceptibility or resistance: S
[3]; [21]
  Characteristics of strains: susceptibility or resistance: R
[4]; [22]
  Characteristics of strains: susceptibility or resistance: R
[4]; [23]
  Characteristics of strains: susceptibility or resistance: R
[5]; [24]
  Characteristics of strains: susceptibility or resistance: R
[5]; [25]
  Characteristics of strains: susceptibility or resistance: R
[10]
  Characteristics of strains: susceptibility or resistance: R

## Clc1ccccc1C(c1ccccc1)(c1ccccc1)n1ccnc1 [Clotrimazole]
[11]
  Characteristics of the strains: susceptibility class: S
[12]
  Characteristics of the strains: susceptibility class: S
[13]
  Characteristics of the strains: susceptibility class: S
[14]
  Characteristics of the strains: susceptibility class: S

## C[C@@H](O)[C@H]1C(=O)N2C(C(=O)O)=C(SCCN=CN)C[C@H]12 [IMP, Imipenem]
[8]
  Characteristics of strains: susceptibility or resistance: R
[1]; [16]
  Characteristics of strains: susceptibility or resistance: S
[1]; [17]
  Characteristics of strains: susceptibility or resistance: S
[9]
  Characteristics of strains: susceptibility or resistance: R
[4]; [22]
  Characteristics of strains: susceptibility or resistance: S
[4]; [23]
  Characteristics of strains: susceptibility or resistance: R
[5]; [24]
  Characteristics of strains: susceptibility or resistance: R
[5]; [25]
  Characteristics of strains: susceptibility or resistance: S
[10]
  Characteristics of strains: susceptibility or resistance: R
[6]; [26]
  Characteristics of strains: susceptibility or resistance: R
[6]; [27]
  Characteristics of strains: susceptibility or resistance: S

## CC(=O)NC[C@H]1CN(c2ccc(N3CCOCC3)c(F)c2)C(=O)O1 [LIN, Linezolid]
[8]
  Characteristics of strains: susceptibility or resistance: S
[1]; [16]
  Characteristics of strains: susceptibility or resistance: R
[1]; [17]
  Characteristics of strains: susceptibility or resistance: S
[9]
  Characteristics of strains: susceptibility or resistance: R
[4]; [22]
  Characteristics of strains: susceptibility or resistance: S
[4]; [23]
  Characteristics of strains: susceptibility or resistance: S
[5]; [24]
  Characteristics of strains: susceptibility or resistance: S
[5]; [25]
  Characteristics of strains: susceptibility or resistance: S
[10]
  Characteristics of strains: susceptibility or resistance: R

## CC(=O)N1CCN(c2ccc(OCC3COC(Cn4ccnc4)(c4ccc(Cl)cc4Cl)O3)cc2)CC1 (stereo not shown) [Ketoconazole]
[11]
  Characteristics of the strains: susceptibility class: S
[12]
  Characteristics of the strains: susceptibility class: S
[13]
  Characteristics of the strains: susceptibility class: S
[14]
  Characteristics of the strains: susceptibility class: S

## NC[C@H]1O[C@H](O[C@H]2[C@H](O)[C@@H](O[C@H]3O[C@H](CO)[C@@H](O)[C@H](N)[C@H]3O)[C@H](N)C[C@@H]2N)[C@H](N)C[C@@H]1O [TOB, Tobramycin]
[6]; [26]
  Characteristics of strains: susceptibility or resistance: S
[6]; [27]
  Characteristics of strains: susceptibility or resistance: S

## CO[C@H]1/C=C/O[C@@]2(C)Oc3c(C)c(O)c4c(O)c(c(/C=N/N5CCN(C)CC5)c(O)c4c3C2=O)NC(=O)/C(C)=C\C=C\[C@H](C)[C@H](O)[C@@H](C)[C@@H](O)[C@@H](C)[C@H](OC(C)=O)[C@@H]1C [RIF, Rifampicin]
[7]; [28]
  Characteristics of strains: susceptibility or resistance: S
[7]; [29]
  Characteristics of strains: susceptibility or resistance: S

## Penicillin
[8]
  Characteristics of strains: susceptibility or resistance: R
[9]
  Characteristics of strains: susceptibility or resistance: R
[7]; [28]
  Characteristics of strains: susceptibility or resistance: S
[7]; [29]
  Characteristics of strains: susceptibility or resistance: S

## CN(C)[C@@H]1C(O)=C(C(N)=O)C(=O)[C@@]2(O)C(O)=C3C(=O)c4c(O)cccc4[C@@](C)(O)[C@H]3C[C@@H]12 [TET, Tetracycline]
[2]; [18]
  Characteristics of strains: susceptibility or resistance: S
[2]; [19]
  Characteristics of strains: susceptibility or resistance: R
[7]; [28]
  Characteristics of strains: susceptibility or resistance: R
[7]; [29]
  Characteristics of strains: susceptibility or resistance: S
[3]; [20]
  Characteristics of strains: susceptibility or resistance: S
[3]; [21]
  Characteristics of strains: susceptibility or resistance: S

## C[C@@H](O)[C@H]1C(=O)N2C(C(=O)O)=C(S[C@@H]3CN[C@H](C(=O)N(C)C)C3)[C@H](C)[C@H]12 [MER, Meropenem]
[6]; [26]
  Characteristics of strains: susceptibility or resistance: R
[6]; [27]
  Characteristics of strains: susceptibility or resistance: S

## CN[C@H](CC(C)C)C(=O)N[C@H]1C(=O)N[C@@H](CC(N)=O)C(=O)N[C@H]2C(=O)N[C@H]3C(=O)N[C@H](C(=O)N[C@H](C(=O)O)c4cc(O)cc(O)c4-c4cc3ccc4O)[C@H](O)c3ccc(c(Cl)c3)Oc3cc2cc(c3O[C@@H]2O[C@H](CO)[C@@H](O)[C@H](O)[C@H]2O[C@H]2C[C@](C)(N)[C@H](O)[C@H](C)O2)Oc2ccc(cc2Cl)[C@H]1O [VAN, Vancomycin]
[2]; [18]
  Characteristics of strains: susceptibility or resistance: S
[2]; [19]
  Characteristics of strains: susceptibility or resistance: S
[7]; [28]
  Characteristics of strains: susceptibility or resistance: S
[7]; [29]
  Characteristics of strains: susceptibility or resistance: S
[3]; [20]
  Characteristics of strains: susceptibility or resistance: S
[3]; [21]
  Characteristics of strains: susceptibility or resistance: S

## OC(Cn1cncn1)(Cn1cncn1)c1ccc(F)cc1F [Fluconazole]
[11]
  Characteristics of the strains: susceptibility class: R
[12]
  Characteristics of the strains: susceptibility class: S
[13]
  Characteristics of the strains: susceptibility class: R
[14]
  Characteristics of the strains: susceptibility class: R

## CO/N=C(\C(=O)N[C@@H]1C(=O)N2C(C(=O)O)=C(CSc3nc(=O)c(O)nn3C)CS[C@H]12)c1csc(N)n1 [CEF, Ceftriazone]
[6]; [26]
  Characteristics of strains: susceptibility or resistance: R
[6]; [27]
  Characteristics of strains: susceptibility or resistance: R

## Nc1nc(O)c2ncn(COC(CO)CO)c2n1 [GCV, ganciclovir]
[15]
  reduction of the titer (inhibition): 1.8 logarithms

## CO/N=C(\C(=O)N[C@@H]1C(=O)N2C(C(=O)O)=C(COC(C)=O)CS[C@H]12)c1csc(N)n1 [CTX, Cefotaxime]
[1]; [16]
  Characteristics of strains: susceptibility or resistance: R
[1]; [17]
  Characteristics of strains: susceptibility or resistance: S
[4]; [22]
  Characteristics of strains: susceptibility or resistance: S
[4]; [23]
  Characteristics of strains: susceptibility or resistance: R
[5]; [24]
  Characteristics of strains: susceptibility or resistance: S
[5]; [25]
  Characteristics of strains: susceptibility or resistance: S
